Test results taken from the supplement of paper PMC10307832.

What was measured:
Assay in all cases: relative viability (nuclei count vs DMSO), 5 days (fraction); higher = more cells survive
NCI-H1975 = system: NCI-H1975
How it was run: (§1)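 Lung cancer cell lines in 1536-well plates were dosed by pin tool the day after seeding, either with one drug alone or with a fixed anchor-drug dose plus five library-drug doses (not always all listed) in √10 steps. After 5 days, cells were fixed and their nuclei stained in one step (final 0.05% Triton X-100, 1% formaldehyde, 1 ug/ml Hoechst), then counted on 4× images. Relative viability is the nuclei count in treated wells divided by that in vehicle wells. Values are medians of duplicate plates.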

HCC-827 = system: HCC-827
How it was run: as §1

NCI-H23 = system: NCI-H23
How it was run: as §1

HARA = system: HARA
How it was run: as §1

201T = system: 201T
How it was run: as §1

HCC-15 = system: HCC-15
How it was run: as §1

A-427 = system: A-427
How it was run: as §1

NCI-H358 = system: NCI-H358
How it was run: as §1

NCI-H838 = system: NCI-H838
How it was run: as §1

BEN = system: BEN
How it was run: as §1

COR-L23 = system: COR-L23
How it was run: as §1

NCI-H1650 = system: NCI-H1650
How it was run: as §1

NCI-H1792 = system: NCI-H1792
How it was run: as §1

NCI-H650 = system: NCI-H650
How it was run: as §1

HCC-44 = system: HCC-44
How it was run: as §1

NCI-H1437 = system: NCI-H1437
How it was run: as §1

NCI-H441 = system: NCI-H441
How it was run: as §1

NCI-H596 = system: NCI-H596
How it was run: as §1

EKVX = system: EKVX
How it was run: as §1

SK-MES-1 = system: SK-MES-1
How it was run: as §1

**Q.** For COc1cc2nccc(Oc3ccc(NC(=O)Nc4cc(C)on4)c(Cl)c3)c2cc1OC [Tivozanib] + C[C@@H](Oc1cc(-c2cnn(C3CCNCC3)c2)cnc1N)c1c(Cl)ccc(F)c1Cl [Crizotinib] (partner 1 µM), which relative viability (NCI-H1975; first compound 0.005 µM) is on record?
**A.** 1.03

**Q.** And the relative viability (NCI-H1975; first compound 0.01581 µM)?
**A.** 0.856

**Q.** And the relative viability (NCI-H1975; first compound 0.05 µM)?
**A.** 0.944

**Q.** What about the relative viability (NCI-H1975; first compound 0.1581 µM) of the same compound?
**A.** 0.833

**Q.** And the relative viability (NCI-H1975; first compound 0.5 µM)?
**A.** 0.826

**Q.** What about the relative viability (HCC-827; first compound 0.005 µM) of the same compound?
**A.** 0.956

**Q.** What about the relative viability (HCC-827; first compound 0.01581 µM) of the same compound?
**A.** 0.928

**Q.** What about the relative viability (HCC-827; first compound 0.05 µM) of the same compound?
**A.** 0.938

**Q.** What about the relative viability (HCC-827; first compound 0.1581 µM) of the same compound?
**A.** 0.988

**Q.** And the relative viability (HCC-827; first compound 0.5 µM)?
**A.** 0.866

**Q.** What about the relative viability (NCI-H23; first compound 0.005 µM) of the same compound?
**A.** 0.544

**Q.** What about the relative viability (NCI-H23; first compound 0.01581 µM) of the same compound?
**A.** 0.541

**Q.** And the relative viability (NCI-H23; first compound 0.05 µM)?
**A.** 0.474

**Q.** And the relative viability (NCI-H23; first compound 0.1581 µM)?
**A.** 0.461

**Q.** And the relative viability (NCI-H23; first compound 0.5 µM)?
**A.** 0.459

**Q.** What about the relative viability (HARA; first compound 0.005 µM) of the same compound?
**A.** 0.976

**Q.** And the relative viability (HARA; first compound 0.01581 µM)?
**A.** 1

**Q.** What about the relative viability (HARA; first compound 0.05 µM) of the same compound?
**A.** 1.21

**Q.** And the relative viability (HARA; first compound 0.1581 µM)?
**A.** 1.09

**Q.** What about the relative viability (HARA; first compound 0.5 µM) of the same compound?
**A.** 0.974

**Q.** And the relative viability (201T; first compound 0.005 µM)?
**A.** 0.981

**Q.** What about the relative viability (201T; first compound 0.01581 µM) of the same compound?
**A.** 1.04

**Q.** And the relative viability (201T; first compound 0.05 µM)?
**A.** 1.06

**Q.** And the relative viability (201T; first compound 0.1581 µM)?
**A.** 1

**Q.** And the relative viability (201T; first compound 0.5 µM)?
**A.** 1.04

**Q.** What about the relative viability (HCC-15; first compound 0.005 µM) of the same compound?
**A.** 0.811

**Q.** What about the relative viability (HCC-15; first compound 0.01581 µM) of the same compound?
**A.** 0.824

**Q.** What about the relative viability (HCC-15; first compound 0.05 µM) of the same compound?
**A.** 0.796

**Q.** What about the relative viability (HCC-15; first compound 0.1581 µM) of the same compound?
**A.** 0.79

**Q.** What about the relative viability (HCC-15; first compound 0.5 µM) of the same compound?
**A.** 0.811

**Q.** And the relative viability (A-427; first compound 0.005 µM)?
**A.** 0.82

**Q.** What about the relative viability (A-427; first compound 0.01581 µM) of the same compound?
**A.** 0.84

**Q.** What about the relative viability (A-427; first compound 0.05 µM) of the same compound?
**A.** 0.986

**Q.** What about the relative viability (A-427; first compound 0.1581 µM) of the same compound?
**A.** 0.818

**Q.** What about the relative viability (A-427; first compound 0.5 µM) of the same compound?
**A.** 0.827

**Q.** And the relative viability (NCI-H358; first compound 0.005 µM)?
**A.** 0.594

**Q.** What about the relative viability (NCI-H358; first compound 0.01581 µM) of the same compound?
**A.** 0.706

**Q.** And the relative viability (NCI-H358; first compound 0.05 µM)?
**A.** 0.622

**Q.** And the relative viability (NCI-H358; first compound 0.1581 µM)?
**A.** 0.604

**Q.** And the relative viability (NCI-H358; first compound 0.5 µM)?
**A.** 0.462

**Q.** What about the relative viability (NCI-H838; first compound 0.005 µM) of the same compound?
**A.** 0.886

**Q.** And the relative viability (NCI-H838; first compound 0.01581 µM)?
**A.** 0.82

**Q.** And the relative viability (NCI-H838; first compound 0.05 µM)?
**A.** 0.857

**Q.** And the relative viability (NCI-H838; first compound 0.5 µM)?
**A.** 0.779

**Q.** And the relative viability (BEN; first compound 0.005 µM)?
**A.** 0.966

**Q.** What about the relative viability (BEN; first compound 0.01581 µM) of the same compound?
**A.** 0.865

**Q.** And the relative viability (BEN; first compound 0.05 µM)?
**A.** 0.647

**Q.** What about the relative viability (BEN; first compound 0.5 µM) of the same compound?
**A.** 1.01

**Q.** What about the relative viability (COR-L23; first compound 0.005 µM) of the same compound?
**A.** 0.622

**Q.** What about the relative viability (COR-L23; first compound 0.01581 µM) of the same compound?
**A.** 0.615

**Q.** And the relative viability (COR-L23; first compound 0.05 µM)?
**A.** 0.659

**Q.** What about the relative viability (COR-L23; first compound 0.1581 µM) of the same compound?
**A.** 0.643

**Q.** And the relative viability (COR-L23; first compound 0.5 µM)?
**A.** 0.543

**Q.** What about the relative viability (NCI-H1650; first compound 0.005 µM) of the same compound?
**A.** 0.919

**Q.** And the relative viability (NCI-H1650; first compound 0.01581 µM)?
**A.** 1.13

**Q.** And the relative viability (NCI-H1650; first compound 0.05 µM)?
**A.** 0.952

**Q.** What about the relative viability (NCI-H1650; first compound 0.1581 µM) of the same compound?
**A.** 1.09

**Q.** What about the relative viability (NCI-H1650; first compound 0.5 µM) of the same compound?
**A.** 0.866

**Q.** What about the relative viability (NCI-H1792; first compound 0.005 µM) of the same compound?
**A.** 0.96

**Q.** And the relative viability (NCI-H1792; first compound 0.01581 µM)?
**A.** 1.01

**Q.** What about the relative viability (NCI-H1792; first compound 0.05 µM) of the same compound?
**A.** 1.07

**Q.** What about the relative viability (NCI-H1792; first compound 0.1581 µM) of the same compound?
**A.** 0.933

**Q.** And the relative viability (NCI-H1792; first compound 0.5 µM)?
**A.** 1.07

**Q.** What about the relative viability (NCI-H650; first compound 0.005 µM) of the same compound?
**A.** 0.596

**Q.** What about the relative viability (NCI-H650; first compound 0.01581 µM) of the same compound?
**A.** 0.906

**Q.** And the relative viability (NCI-H650; first compound 0.05 µM)?
**A.** 0.891

**Q.** What about the relative viability (NCI-H650; first compound 0.1581 µM) of the same compound?
**A.** 0.696

**Q.** What about the relative viability (NCI-H650; first compound 0.5 µM) of the same compound?
**A.** 0.455

**Q.** And the relative viability (HCC-44; first compound 0.005 µM)?
**A.** 0.743

**Q.** What about the relative viability (HCC-44; first compound 0.01581 µM) of the same compound?
**A.** 0.787

**Q.** And the relative viability (HCC-44; first compound 0.05 µM)?
**A.** 0.82

**Q.** And the relative viability (HCC-44; first compound 0.1581 µM)?
**A.** 0.78

**Q.** And the relative viability (HCC-44; first compound 0.5 µM)?
**A.** 0.811

**Q.** And the relative viability (NCI-H1437; first compound 0.005 µM)?
**A.** 0.899

**Q.** What about the relative viability (NCI-H1437; first compound 0.01581 µM) of the same compound?
**A.** 0.932

**Q.** And the relative viability (NCI-H1437; first compound 0.05 µM)?
**A.** 0.859

**Q.** What about the relative viability (NCI-H1437; first compound 0.1581 µM) of the same compound?
**A.** 0.947

**Q.** What about the relative viability (NCI-H1437; first compound 0.5 µM) of the same compound?
**A.** 0.824

**Q.** What about the relative viability (NCI-H441; first compound 0.005 µM) of the same compound?
**A.** 0.688

**Q.** What about the relative viability (NCI-H441; first compound 0.01581 µM) of the same compound?
**A.** 0.676

**Q.** And the relative viability (NCI-H441; first compound 0.05 µM)?
**A.** 0.607

**Q.** What about the relative viability (NCI-H441; first compound 0.1581 µM) of the same compound?
**A.** 0.72

**Q.** What about the relative viability (NCI-H441; first compound 0.5 µM) of the same compound?
**A.** 0.666

**Q.** And the relative viability (NCI-H596; first compound 0.005 µM)?
**A.** 0.947

**Q.** What about the relative viability (NCI-H596; first compound 0.01581 µM) of the same compound?
**A.** 0.903

**Q.** And the relative viability (NCI-H596; first compound 0.05 µM)?
**A.** 0.961

**Q.** And the relative viability (NCI-H596; first compound 0.1581 µM)?
**A.** 0.861

**Q.** And the relative viability (NCI-H596; first compound 0.5 µM)?
**A.** 0.966

**Q.** What about the relative viability (EKVX; first compound 0.005 µM) of the same compound?
**A.** 0.995

**Q.** What about the relative viability (EKVX; first compound 0.01581 µM) of the same compound?
**A.** 1.02

**Q.** What about the relative viability (EKVX; first compound 0.05 µM) of the same compound?
**A.** 0.819

**Q.** And the relative viability (EKVX; first compound 0.1581 µM)?
**A.** 1.06

**Q.** And the relative viability (EKVX; first compound 0.5 µM)?
**A.** 1.22

**Q.** And the relative viability (SK-MES-1; first compound 0.005 µM)?
**A.** 1.02

**Q.** What about the relative viability (SK-MES-1; first compound 0.01581 µM) of the same compound?
**A.** 1.03

**Q.** What about the relative viability (SK-MES-1; first compound 0.05 µM) of the same compound?
**A.** 1

**Q.** And the relative viability (SK-MES-1; first compound 0.1581 µM)?
**A.** 0.995

**Q.** And the relative viability (SK-MES-1; first compound 0.5 µM)?
**A.** 0.87
